System: Wild-type (WT) U2OS cells
Assay: Reduction in nonspecific labeling of WT cells (number of tracks vs PA-JF549)
Format: cell-based
Settings: 100 nM, 1 hr, ratio with PA-JF549 in the numerator
Procedure: Using the methods described in Tables 4a and 4b above, labelling specificity of the compound of Examples 1-28 was measured and compared to PA-JF549. U2OS cells wild type or expressing ER-HaloTag fusion were incubated with PA-JF549 or Examples 1-28 for 1 hr. […] Labeling specificity, as measured by the fold reduction in nonspecific labeling of WT cells, was calculated by number of tracks measured in WT cells for Examples 1-28 compared to the number of tracks in WT cells for PA-JF549, expressed as the ratio with PA-JF549 in the numerator.

[1] = Table 4b, Example 19 with 642 nm light

## 1,1′-(6-((2-(2-((6-chlorohexyl)oxy)ethoxy)ethyl)carbamoyl)-2-diazo-3-oxo-2,3-dihydrospiro[indene-1,9′-xanthene]-3′,6′-diyl)bis(azetidine-3-carboxamide [Example 20]
[1]
  Fold reduction in nonspecific labeling: >10

## CN(C)C1CN(c2ccc3c(c2)Oc2cc(N4CC(N(C)C)C4)ccc2C32C(=[N+]=[N-])C(=O)c3ccc(C(=O)NCCOCCOCCCCCCCl)cc32)C1 [Example 13, N-(2-(2-((6-chlorohexyl)oxy)ethoxy)ethyl)-2-diazo-3′,6′-bis(3-(dimethylamino)azetidin-1-yl)-3-oxo-2,3-dihydrospiro[indene-1,9′-xanthene]-6-carboxamide]
Table 4a
  Fold reduction in nonspecific labeling: 5-10
[1]
  Fold reduction in nonspecific labeling: 5-10

## CN(CCOCCOCCCCCCCl)C(=O)c1ccc2c(c1)C1(C(=[N+]=[N-])C2=O)c2ccc(N3CCC3)cc2Oc2cc(N3CCC3)ccc21 [Example 8, 3′,6′-di(azetidin-1-yl)-N-(2-(2-((6-chlorohexyl)oxy)ethoxy)ethyl)-2-diazo-N-methyl-3-oxo-2,3-dihydrospiro[indene-1,9′-xanthene]-6-carboxamide]
Table 4a
  Fold reduction in nonspecific labeling: 5-10
[1]
  Fold reduction in nonspecific labeling: 5-10

## O=C1OC2(c3ccc(N4CCC4)cc3Oc3cc(N4CCC4)ccc32)c2cc(NCCOCCOCCCCCCCl)ccc21 [Example 21, 3′,6′-di(azetidin-1-yl)-6-((2-(2-((6-chlorohexyl)oxy)ethoxy)ethyl)amino)-3H-spiro[isobenzofuran-1,9′-xanthen]-3-one]
[1]
  Fold reduction in nonspecific labeling: 5-10

## CN(C)C(=O)[C@@H]1CCN1c1ccc2c(c1)Oc1cc(N3CC[C@H]3C(=O)N(C)C)ccc1C21C(=[N+]=[N-])C(=O)c2ccc(C(=O)NCCOCCOCCCCCCCl)cc21 [Example 14, (2S,2′S)-1,1′-(6-((2-(2-((6-chlorohexyl)oxy)ethoxy)ethyl)carbamoyl)-2-diazo-3-oxo-2,3-dihydrospiro[indene-1,9′-xanthene]-3′,6′-diyl)bis(N,N-dimethylazetidine-2-carboxamide)]
Table 4a
  Fold reduction in nonspecific labeling: >10
[1]
  Fold reduction in nonspecific labeling: >10

## CN(C)C(=O)[C@H]1CCN(c2ccc3c(c2)Oc2cc(N4CC[C@H](C(=O)N(C)C)C4)ccc2C32C(=[N+]=[N-])C(=O)c3ccc(C(=O)NCCOCCOCCCCCCCl)cc32)C1 [Example 16, (3S,3′S)-1,1′-(6-((2-(2-((6-chlorohexyl)oxy)ethoxy)ethyl)carbamoyl)-2-diazo-3-oxo-2,3-dihydrospiro[indene-1,9′-xanthene]-3′,6′-diyl)bis(N,N-dimethylpyrrolidine-3-carboxamide)]
Table 4a
  Fold reduction in nonspecific labeling: 5-10
[1]
  Fold reduction in nonspecific labeling: 5-10

## CN(C)C(=O)C1CN(c2ccc3c(c2)Oc2cc(N4CC(C(=O)N(C)C)C4)ccc2C32C(=[N+]=[N-])C(=O)c3ccc(C(=O)NCc4ccc(COc5nc(N)nc6nc[nH]c56)cc4)cc32)C1 [Example 5, 1,1′-(6-((4-(((2-amino-7H-purin-6-yl)oxy)methyl)benzyl)carbamoyl)-2-diazo-3-oxo-2,3-dihydrospiro[indene-1,9′-xanthene]-3′,6′-diyl)bis(N,N-dimethylazetidine-3-carboxamide)]
Table 4a
  Fold reduction in nonspecific labeling: >10
[1]
  Fold reduction in nonspecific labeling: >10

## CN(CCOCCOCCCCCCCl)Cc1ccc2c(c1)C1(C(=[N+]=[N-])C2=O)c2ccc(N3CCC3)cc2Oc2cc(N3CCC3)ccc21 [Example 26, 3′,6′-di(azetidin-1-yl)-6-(((2-(2-((6-chlorohexyl)oxy)ethoxy)ethyl)(methyl)amino)methyl)-2-diazospiro[indene-1,9′-xanthen]-3(2H)-one]
[1]
  Fold reduction in nonspecific labeling: <1

## [N-]=[N+]=C1C(=O)c2ccc(C(=O)NCCOCCOCCCCCCCl)cc2C12c1ccc(N3CC[C@@H]3CO)cc1Oc1cc(N3CC[C@@H]3CO)ccc12 [Example 15, N-(2-(2-((6-chlorohexyl)oxy)ethoxy)ethyl)-2-diazo-3′,6′-bis((R)-2-(hydroxymethyl)azetidin-1-yl)-3-oxo-2,3-dihydrospiro[indene-1,9′-xanthene]-6-carboxamide]
Table 4a
  Fold reduction in nonspecific labeling: 5-10
[1]
  Fold reduction in nonspecific labeling: 5-10

## [N-]=[N+]=C1C(=O)c2ccc(NC(=O)CCOCCOCCCCCCCl)cc2C12c1ccc(N3CCC3)cc1Oc1cc(N3CCC3)ccc12 [Example 22, 3-(2-((6-chlorohexyl)oxy)ethoxy)-N-(3′,6′-di(azetidin-1-yl)-2-diazo-3-oxo-2,3-dihydrospiro[indene-1,9′-xanthen]-6-yl)propanamide]
[1]
  Fold reduction in nonspecific labeling: 5-10

## CNC(=O)C1CN(c2ccc3c(c2)Oc2cc(N4CC(C(=O)NC)C4)ccc2C32C(=[N+]=[N-])C(=O)c3ccc(C(=O)NCCOCCOCCCCCCCl)cc32)C1 [Example 12, 1,1′-(6-((2-(2-((6-chlorohexyl)oxy)ethoxy)ethyl)carbamoyl)-2-diazo-3-oxo-2,3-dihydrospiro[indene-1,9′-xanthene]-3′,6′-diyl)bis(N-methylazetidine-3-carboxamide)]
Table 4a
  Fold reduction in nonspecific labeling: >10
[1]
  Fold reduction in nonspecific labeling: >10

## [N-]=[N+]=C1C(=O)c2ccc(C(=O)NCCOCCOCCCCCCCl)cc2C12c1ccc(N3CC(C(=O)N4CCCC4)C3)cc1Oc1cc(N3CC(C(=O)N4CCCC4)C3)ccc12 [Example 10, N-(2-(2-((6-chlorohexyl)oxy)ethoxy)ethyl)-2-diazo-3-oxo-3′,6′-bis(3-(pyrrolidine-1-carbonyl)azetidin-1-yl)-2,3-dihydrospiro[indene-1,9′-xanthene]-6-carboxamide]
Table 4a
  Fold reduction in nonspecific labeling: 5-10
[1]
  Fold reduction in nonspecific labeling: 5-10

## CN1CC2CC(C1)N2c1ccc2c(c1)Oc1cc(N3C4CC3CN(C)C4)ccc1C21C(=[N+]=[N-])C(=O)c2ccc(C(=O)NCCOCCOCCCCCCCl)cc21 (centres unmarked) [Example 18, N-(2-(2-((6-chlorohexyl)oxy)ethoxy)ethyl)-2-diazo-3′,6′-bis(3-methyl-3,6-diazabicyclo[3.1.1]heptan-6-yl)-3-oxo-2,3-dihydrospiro[indene-1,9′-xanthene]-6-carboxamide]
Table 4a
  Fold reduction in nonspecific labeling: >10
[1]
  Fold reduction in nonspecific labeling: >10

## [N-]=[N+]=C1C(=O)c2ccc(OCCCOCCOCCCCCCCl)cc2C12c1ccc(N3CCC3)cc1Oc1cc(N3CCC3)ccc12 [Example 25, 3′,6′-di(azetidin-1-yl)-6-(3-(2-((6-chlorohexyl)oxy)ethoxy)propoxy)-2-diazospiro[indene-1,9′-xanthen]-3(2H)-one]
[1]
  Fold reduction in nonspecific labeling: <1

## [N-]=[N+]=C1C(=O)c2ccc(COCCOCCOCCCCCCCl)cc2C12c1ccc(N3CCC3)cc1Oc1cc(N3CCC3)ccc12 [Example 27, 3′,6′-di(azetidin-1-yl)-6-((2-(2-((6-chlorohexyl)oxy)ethoxy)ethoxy)methyl)-2-diazospiro[indene-1,9′-xanthen]-3(2H)-one]
[1]
  Fold reduction in nonspecific labeling: <1

## [N-]=[N+]=C1C(=O)c2ccc(CCCCOCCOCCCCCCCl)cc2C12c1ccc(N3CCC3)cc1Oc1cc(N3CCC3)ccc12 [Example 24, 3′,6′-di(azetidin-1-yl)-6-(4-(2-((6-chlorohexyl)oxy)ethoxy)butyl)-2-diazospiro[indene-1,9′-xanthen]-3(2H)-one]
[1]
  Fold reduction in nonspecific labeling: 1-5

## COC(=O)[C@H]1CCN1c1ccc2c(c1)Oc1cc(N3CC[C@@H]3C(=O)OC)ccc1C21C(=[N+]=[N-])C(=O)c2ccc(C(=O)NCCOCCOCCCCCCCl)cc21 [Example 6, Dimethyl 1,1′-(6-((2-(2-((6-chlorohexyl)oxy)ethoxy)ethyl)carbamoyl)-2-diazo-3-oxo-2,3-dihydrospiro[indene-1,9′-xanthene]-3′,6′-diyl)(2R,2′R)-bis(azetidine-2-carboxylate)]
Table 4a
  Fold reduction in nonspecific labeling: 1-5
[1]
  Fold reduction in nonspecific labeling: 1-5

## CN1CCN(C(=O)C2CN(c3ccc4c(c3)Oc3cc(N5CC(C(=O)N6CCN(C)CC6)C5)ccc3C43C(=[N+]=[N-])C(=O)c4ccc(C(=O)NCCOCCOCCCCCCCl)cc43)C2)CC1 [Example 11, N-(2-(2-((6-chlorohexyl)oxy)ethoxy)ethyl)-2-diazo-3′,6′-bis(3-(4-methylpiperazine-1-carbonyl)azetidin-1-yl)-3-oxo-2,3-dihydrospiro[indene-1,9′-xanthene]-6-carboxamide]
Table 4a
  Fold reduction in nonspecific labeling: 1-5
[1]
  Fold reduction in nonspecific labeling: 1-5

## CN(C)C(=O)C1CN(c2ccc3c(c2)[Si](C)(C)c2cc(N4CC(C(=O)N(C)C)C4)ccc2C32C(=[N+]=[N-])C(=O)c3ccc(C(=O)NCCOCCOCCCCCCCl)cc32)C1 [Example 19, 1,1′-(6′-((2-(2-((6-chlorohexyl)oxy)ethoxy)ethyl)carbamoyl)-2′-diazo-5,5-dimethyl-3′-oxo-2′,3′-dihydro-5H-spiro[dibenzo[b,e]siline-10,1′-indene]-3,7-diyl)bis(N,N-dimethylazetidine-3-carboxamide)]
[1]
  Fold reduction in nonspecific labeling: >10

## [N-]=[N+]=C1C(=O)c2ccc(C(=O)NCCOCCOCCCCCCCl)cc2C12c1ccc(N3CC(O)C3)cc1Oc1cc(N3CC(O)C3)ccc12 [Example 7, N-(2-(2-((6-chlorohexyl)oxy)ethoxy)ethyl)-2-diazo-3′,6′-bis(3-hydroxyazetidin-1-yl)-3-oxo-2,3-dihydrospiro[indene-1,9′-xanthene]-6-carboxamide]
Table 4a
  Fold reduction in nonspecific labeling: >10
[1]
  Fold reduction in nonspecific labeling: >10
